From US11872230B2, “Method of treating a methionine-dependent cancer” (Agency for Science, Technology and Research, priority 2018, dated 2024)
“Also recorded” adds a separate entry of the source.

Experiments:
[1] = tested on: methionine cycle metabolites in TS cells; test: LC/MS abundance of methionine cycle metabolites 48 h after inhibitor treatment; format: cell-based, human; conditions: 48 h FIDAS5 (10 μM), normalized to DMSO
Experimental: Cis-platinum (cis-Diammineplatinum(II) dichloride) and MG132 (10 μM final concentration) was purchased from Sigma, FIDAS-5 (final concentration of 10 μM in culture medium) from Merck Millipore and D9 (final concentration of 500 nM in culture medium).
For suspension cell culture, 10 million cells per sample were obtained and quenched with 4 volumes of ice-cold 150 mM sodium chloride solution. The cell pellets were collected by centrifugation of the quenched samples at 3000 g for 5 min at 4° C. and the supernatant was aspirated and discarded. For adherent cell culture, the media was gently aspirated and the cells on the surfaces of the well plates were gently washed with ice-cold 150 mM sodium chloride solution thrice. Ice-cold sodium chloride was added to the plate and a cell scraper was used to release adherent cells from the plate surface. The cell pellets were collected as described earlier and kept on ice. […]
For targeted LC/MS analysis, the chromatographic peak integration was performed using Targetlynx software (Waters Corp). In addition, for the ^13C-labeled methionine pulse-chase experiments, the atomic percent excess (APE) for each species was calculated and natural abundance corrected from an isotopomer matrix accounting for the presence of natural abundance carbons distributed throughout each possible parent/daughter ion combination (Table 3). […]

[2] = tested on: triple-negative breast cancer (TNBC) cells incl. BC2.2; test: Sensitivity of triple-negative breast cancer cells to MAT2A inhibition; format: cell-based; conditions: in particular chemotherapy resistant BC2.2
TS cells (lung TICs) = test: Tumor formation in NSG mice after transplantation of pre-treated TS cells; format: in vivo; conditions: 500,000 TS cells treated 48 h with inhibitor, transplanted into NSG mice, 6 weeks
Text: 5×10^5 single cells were mixed in a 1:1 mixture of serum free DMEM/F12 and Matrigel (BD) and injected subcutaneously into the flanks of 4-6 week old male and female NOD.Cg-Prkdc^scid Il2rg^tm1wjl SzJ (Jackson Laboratories). About 6 weeks later, or when tumor sizes exceed 2 cm in length, mice were sacrificed and tumors harvested for analysis. All animal experiments were approved by the Agency for Science Technology and Research Singapore—Biological Resource Centre. Mice were randomized by sex.
To evaluate the methionine cycle as a therapeutic target in lung TICs, small molecule inhibitors that target enzymes within this pathway were employed, mimicking the effects of short-term methionine starvation (FIG. 5a). two inhibitors known to perturb methionine cycle activity and cellular methylation levels: 1) MAT2A inhibitor, FIDAS5; and 2) SAHH inhibitor, D9, which is an analog of DZNep. In a manner similar to amino acid starvation studies, TS cells were exposed transiently to the compounds for 48 h in culture and were immediately used for downstream tumorigenesis assays.

TS cells = test: Cell proliferation assay (CellTiter-Glo) of TS cells; format: cell-based, human
Experimental: Cells were seeded into 96-well plates at a density of 2,000 cells/well for TS cells and 500 cells/well for Adh cells. The relative number of viable cells was determined by the quantification of ATP using the CellTiter-Glo Luminescent Cell Viability Assay (Promega) system.

`CNc1ccc(/C=C/c2c(F)cccc2Cl)cc1` [FIDAS5] was tested, and the “reduction of intracellular levels of SAH” value [1] was ~10 fold, the “reduction of intracellular levels of SAM” value [1] was ~10 fold and the “effect on TNBC cells” value [2] was “displayed sensitivity; also recorded: effective”. The tumor-forming ability (TS cells (lung TICs)) was “severely diminished”, the growth capacity (TS cells; TS cells exposed to FIDAS5 for six days, then medium without FIDAS5) was “completely ablated” and the long-term proliferation ability (TS cells; TS cells, transient 48 h exposure then complete media) was “did not negatively impact”.
